{
  "source": "paper PMC12274739",
  "about": "“Differential substrate degradation by super-degron: EGFP in wild-type mouse cells, PD-1 requires CRBN humanization” (iScience, 2025)",
  "key": {"[1]": {"set-up": "method as in PMID 31125896", "details": "BALB/c mice, oral; cited from earlier work"}, "EGFP-SD [2]": {"system": "EGFP-SD", "assay_type": "cell-based, mouse", "details": "for ratio of bottom, mouse vs human cell line: EGFP-SD; for bottom vs top, EGFP-SD: IBR up to 1 μM"}, "SD-EGFP": {"biological_target": "SD-EGFP (Aequorea victoria, UniProt P42212, F64L/H231L/S65T)", "details": "rat ESCs, stable"}, "[3]": {"system": "CD8+ and CD4+ T cells infiltrating the MC-38 microenvironment", "test": "Markers on T cells from MC-38 tumor microenvironment, flow cytometry day 9", "assay_type": "in vivo, mouse", "protocol": "Data are represented as mean ± standard error (SEM). The same experiment was repeated twice to confirm reproducibility. p-values were determined by two-way ANOVA multiple comparisons. ∗∗∗∗p < 0.0001 and ∗p = 0.0267. […] Data are represented as mean ± SEM. The same experiment was repeated twice to confirm reproducibility. p-values were determined by two-way ANOVA multiple comparisons. ∗∗∗∗p < 0.0001, ∗∗∗p = 0.0005, ∗∗p = 0.0067. […] Ratio of PD-1 positive cells and mean fluorescence intensity (MFI) of PD-1 (D), TIM-3 (E), and LAG-3 (F) on CD8^+ and CD4^+ T cells isolated from tumor microenvironments 9 days after the initiation of treatment are shown. Fluorescence intensity of each molecule was measured by flow cytometry, and the geometric MIFs of marker-positive cells were calculated. The data in two experiments were compiled. p-values were determined by the Brown-Forsythe and Welch ANOVA test. Different letters indicate statistically significant differences between groups (p < 0.05). Boxplots: hinges, 25th and 75th percentiles; middle line, median; whiskers, minimum to maximum value.\nNext, the effects of SD-induced PD-1 reduction were compared with those of anti-PD-1 antibody treatment in vivo. […] CD3^+ T cells infiltrating the MC-38 microenvironment were analyzed on day 9 of treatment before the MC-38 tumor masses had shrunk with treatment and no longer provided sufficient T cells for FACS analyses.\nSubsequently, we analyzed the proportion of exhaustion and activation marker-positive cells in each experimental group, as well as the expression levels of each marker in the marker-positive cells.\nP-values were determined by one-way ANOVA with Tukey’s multiple comparisons. IBR: IBR-treated.\nSamples are the same as Figure 7D. CrbnI391V/I391V mice were used for the experiments. Only PD-1 genotypes were shown in D. Pdcd1+/+/CrbnI391V/I391V control Ab: n = 11, Pdcd1+/+/CrbnI391V/I391V […]\nE Expression analyses of PD-1, TIM-3, LAG-3, TIGIT and CX3CR1 on T cells by flow cytometry.\nCells in microenvironments were sorted by indicated gates. Dotted lines indicate isotype control. […]\nPD-1 treatment. […] Different letters indicate statistically significant differences between groups (p < 0.05). Box plots: hinges, 25th and 75th percentiles; middle line, median; whiskers, minimum to maximum value."}, "EGFP-SD [4]": {"system": "EGFP-SD", "test": "Degradation of stably expressed EGFP-SD in human cell lines (hESCs, HEK293, Jurkat)", "assay_type": "cell-based", "details": "for bottom vs top, EGFP-SD: IBR up to 1 μM"}, "SD-EGFP (N-terminal SD) [5]": {"system": "SD-EGFP (N-terminal SD)", "assay_type": "cell-based, mouse", "details": "Crbn+/I391V mESCs (h/mCRBN), transient, 24 h"}, "SD-EGFP (N-terminal SD) [6]": {"biological_target": "SD-EGFP (N-terminal SD) (Aequorea victoria, UniProt P42212, F64L/H231L/S65T)", "assay_type": "cell-based, mouse", "details": "transient, 24 h; for DC50: read-out: DC50, SD-EGFP"}},
  "note": "Like-named read-outs stand apart in the source and are kept apart here.",
  "data": [
    {"smiles": "O=C1CC[C@H](N2Cc3c(OCc4ccc(CN5CCOCC5)cc4)cccc3C2=O)C(=O)N1", "note": "[IBR, iberdomide]", "values": [
      {"measurement": "half-life (T1/2)", "setting": "[1]", "result": 54, "unit": "min"},
      {"measurement": "time of serum concentration peak", "setting": "[1]", "result": 0.14, "unit": "h"},
      {"measurement": "ratio of bottom, mouse vs human cell line", "setting": "EGFP-SD [2]; EL4 vs Jurkat", "result": 1.804},
      {"measurement": "ratio of bottom, mouse vs human cell line", "setting": "EGFP-SD [2]; NIH3T3 vs HEK293", "result": 3.605},
      {"measurement": "Bottom, EGFP-SD", "setting": "EGFP-SD [2]; EL4, stable", "result": 0.04356},
      {"measurement": "DC50", "setting": "EGFP-SD [2]; EL4, stable", "result": 0.0755, "unit": "nM"},
      {"measurement": "bottom vs top, EGFP-SD", "setting": "EGFP-SD [2]; EL4, stable", "result": 0.057},
      {"measurement": "Bottom, EGFP-SD", "setting": "EGFP-SD [2]; NIH3T3, stable", "result": 0.03706},
      {"measurement": "DC50", "setting": "EGFP-SD [2]; NIH3T3, stable", "result": 0.079, "unit": "nM"},
      {"measurement": "bottom vs top, EGFP-SD", "setting": "EGFP-SD [2]; NIH3T3, stable", "result": 0.049},
      {"measurement": "Bottom, EGFP-SD", "setting": "EGFP-SD [2]; mouse ESCs, stable", "result": 0.02573},
      {"measurement": "DC50", "setting": "EGFP-SD [2]; mouse ESCs, stable", "result": 0.221, "unit": "nM"},
      {"measurement": "bottom vs top, EGFP-SD", "setting": "EGFP-SD [2]; mouse ESCs, stable", "result": 0.085},
      {"measurement": "level to which EGFP-SD was suppressed", "setting": "EGFP-SD [2]; mouse wild-type cell lines, IBR approximately 10^−2 μM to 10^−3 μM", "result": 10, "unit": "%"},
      {"measurement": "Bottom, SD-EGFP", "setting": "SD-EGFP", "result": 0.01454},
      {"measurement": "bottom vs top, SD-EGFP", "setting": "SD-EGFP; IBR up to 1 μM", "result": 0.057},
      {"measurement": "DC50", "setting": "SD-EGFP; read-out: DC50, SD-EGFP", "result": 0.271, "unit": "nM"},
      {"measurement": "TIM-3 in CD8+ T cells vs untreated", "setting": "[3]; IBR: Pdcd1SD/SD/CrbnI391V/I391V, cell ratio and expression level, antibody: Pdcd1+/+/CrbnI391V/I391V, expression level", "result": "decreased"},
      {"measurement": "CX3CR1 in CD8+ T cells vs untreated", "setting": "[3]; IBR: Pdcd1SD/SD/CrbnI391V/I391V, antibody: Pdcd1+/+/CrbnI391V/I391V, CX3CR1+ cell ratio", "result": "comparable between IBR-treated and untreated groups"},
      {"measurement": "LAG-3 and TIGIT in CD8+ T cells vs untreated", "setting": "[3]; IBR: Pdcd1SD/SD/CrbnI391V/I391V, antibody: Pdcd1+/+/CrbnI391V/I391V, expression level", "result": "remained comparable"},
      {"measurement": "LAG-3 expression levels in CD4+ T cells", "setting": "[3]; Pdcd1SD/SD/CrbnI391V/I391V", "result": "higher than those in the untreated group"},
      {"measurement": "PD-1 expression level in PD-1+ CD8+ T cells vs untreated", "setting": "[3]; Pdcd1SD/SD/CrbnI391V/I391V, day 9", "result": "significant reduction"},
      {"measurement": "frequency / number of T cells infiltrating the MC-38 microenvironment", "setting": "[3]; day 9 of treatment", "result": "did not differ"},
      {"measurement": "Bottom, EGFP-SD", "setting": "EGFP-SD [4]; HEK293, stable", "result": 0.01028},
      {"measurement": "DC50", "setting": "EGFP-SD [4]; HEK293, stable", "result": 0.00545, "unit": "nM"},
      {"measurement": "bottom vs top, EGFP-SD", "setting": "EGFP-SD [4]; HEK293, stable", "result": 0.009},
      {"measurement": "Bottom, EGFP-SD", "setting": "EGFP-SD [4]; Jurkat, stable", "result": 0.02414},
      {"measurement": "DC50", "setting": "EGFP-SD [4]; Jurkat, stable", "result": 0.0118, "unit": "nM"},
      {"measurement": "bottom vs top, EGFP-SD", "setting": "EGFP-SD [4]; Jurkat, stable", "result": 0.024},
      {"measurement": "Bottom, EGFP-SD", "setting": "EGFP-SD [4]; human ESCs, stable", "result": 0.007522},
      {"measurement": "DC50", "setting": "EGFP-SD [4]; human ESCs, stable", "result": 0.00278, "unit": "nM"},
      {"measurement": "bottom vs top, EGFP-SD", "setting": "EGFP-SD [4]; human ESCs, stable", "result": 0.005},
      {"measurement": "Bottom, SD-EGFP (EGFP/mCherry MFI)", "setting": "SD-EGFP (N-terminal SD) [5]", "result": 0.07126},
      {"measurement": "DC50", "setting": "SD-EGFP (N-terminal SD) [5]", "result": 0.0784, "unit": "nM"},
      {"measurement": "bottom vs top, SD-EGFP", "setting": "SD-EGFP (N-terminal SD) [5]", "result": 0.18},
      {"measurement": "Bottom, SD-EGFP (EGFP/mCherry MFI)", "setting": "SD-EGFP (N-terminal SD) [6]; B6J-S1 mESCs", "result": 0.09529},
      {"measurement": "bottom vs top, SD-EGFP", "setting": "SD-EGFP (N-terminal SD) [6]; B6J-S1 mESCs", "result": 0.24},
      {"measurement": "Bottom, SD-EGFP (EGFP/mCherry MFI)", "setting": "SD-EGFP (N-terminal SD) [6]; Crbn+/+ mESCs (mCRBN)", "result": 0.113},
      {"measurement": "bottom vs top, SD-EGFP", "setting": "SD-EGFP (N-terminal SD) [6]; Crbn+/+ mESCs (mCRBN)", "result": 0.25},
      {"measurement": "Bottom, SD-EGFP (EGFP/mCherry MFI)", "setting": "SD-EGFP (N-terminal SD) [6]; CrbnI391V/I391V mESCs (hCRBN)", "result": 0.04953},
      {"measurement": "bottom vs top, SD-EGFP", "setting": "SD-EGFP (N-terminal SD) [6]; CrbnI391V/I391V mESCs (hCRBN)", "result": 0.13},
      {"measurement": "DC50", "setting": "SD-EGFP (N-terminal SD) [6]; B6J-S1 mESCs", "result": 1.82, "unit": "nM"},
      {"measurement": "DC50", "setting": "SD-EGFP (N-terminal SD) [6]; Crbn+/+ mESCs (mCRBN)", "result": 6.06, "unit": "nM"},
      {"measurement": "DC50", "setting": "SD-EGFP (N-terminal SD) [6]; CrbnI391V/I391V mESCs (hCRBN)", "result": 0.0637, "unit": "nM"}
    ]}
  ]
}
